Measured values taken from the supplement of paper PMC10307832.

How the values were obtained:
Test in all cases: relative viability (nuclei count vs DMSO), 5 days (fraction); higher = more cells survive
[1] = compound: C[C@@H](N)c1ccc(C(=O)Nc2ccnc3[nH]ccc23)cc1 + O=C(c1cc(Cc2n[nH]c(=O)c3ccccc23)ccc1F)N1CCN(C(=O)C2CC2)CC1 [Olaparib] (partner 8 µM)
Procedure, shortened: (§1)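 Each reported value is a median over duplicate plates. It expresses relative viability: treated-well nuclei count divided by vehicle-well nuclei count. Lung cancer cell lines in 1536-well plates were dosed by pin tool a day after seeding, alone with one drug or with a fixed anchor-drug dose plus five library-drug doses (not always all listed) in √10 steps, and nuclei were counted after 5 days.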

Tanzisertib + Decitabine = compound: O[C@H]1CC[C@H](Nc2ncc3nc(Nc4c(F)cc(F)cc4F)n([C@H]4CCOC4)c3n2)CC1 [Tanzisertib] + Nc1ncn([C@H]2C[C@H](O)[C@@H](CO)O2)c(=O)n1 [Decitabine] (partner 2 µM)
Procedure, shortened: as §1

Tanzisertib + Lapatinib = compound: O[C@H]1CC[C@H](Nc2ncc3nc(Nc4c(F)cc(F)cc4F)n([C@H]4CCOC4)c3n2)CC1 [Tanzisertib] + CS(=O)(=O)CCNCc1ccc(-c2ccc3ncnc(Nc4ccc(OCc5cccc(F)c5)c(Cl)c4)c3c2)o1 [Lapatinib] (partner 2 µM)
Procedure, shortened: as §1

[2] = compound: C[C@@H](N)c1ccc(C(=O)Nc2ccnc3[nH]ccc23)cc1 + CCNC(=O)c1noc(-c2cc(C(C)C)c(O)cc2O)c1-c1ccc(CN2CCOCC2)cc1 [Luminespib] (partner 0.01 µM)
Procedure, shortened: as §1

Cell Line | relative viability ([1]; first compound 0.04 µM) | relative viability ([1]; first compound 0.1265 µM) | relative viability ([1]; first compound 0.4 µM) | relative viability ([1]; first compound 4 µM) | relative viability (Tanzisertib + Decitabine; first compound 0.08 µM) | relative viability (Tanzisertib + Decitabine; first compound 0.253 µM) | relative viability (Tanzisertib + Decitabine; first compound 0.8 µM) | relative viability (Tanzisertib + Decitabine; first compound 2.53 µM) | relative viability (Tanzisertib + Decitabine; first compound 8 µM) | relative viability (Tanzisertib + Lapatinib; first compound 0.08 µM) | relative viability (Tanzisertib + Lapatinib; first compound 0.253 µM) | relative viability (Tanzisertib + Lapatinib; first compound 0.8 µM) | relative viability (Tanzisertib + Lapatinib; first compound 2.53 µM) | relative viability (Tanzisertib + Lapatinib; first compound 8 µM) | relative viability ([2]; first compound 0.04 µM) | relative viability ([2]; first compound 0.1265 µM) | relative viability ([2]; first compound 0.4 µM) | relative viability ([2]; first compound 4 µM) | relative viability ([1]; first compound 1.265 µM) | relative viability ([2]; first compound 1.265 µM)
NCI-H23 | 0.311 | 0.335 | 0.368 | 0.3 | 0.3 | 0.301 | 0.32 | 0.282 | 0.374 | 1.4 | 0.998 | 0.964 | 1.05 | 0.936 | 0.198 | 0.235 | 0.203 | 0.21 | – | –
NCI-H322M | 0.862 | 0.944 | 0.901 | 0.979 | 0.724 | 0.743 | 0.746 | 0.705 | 0.695 | 0.621 | 0.61 | 0.567 | 0.626 | 0.571 | 1.08 | 1.1 | 1.03 | 0.742 | 1.01 | –
NCI-H358 | 0.625 | 0.628 | 0.69 | 0.479 | 0.232 | 0.221 | 0.189 | 0.248 | 0.181 | 0.536 | 0.474 | 0.413 | 0.436 | 0.321 | 0.231 | 0.213 | 0.348 | 0.364 | 0.696 | 0.237
NCI-H460 | 0.342 | 0.429 | 0.521 | 0.571 | 0.54 | 0.465 | 0.479 | 0.467 | 0.497 | 0.968 | 0.959 | 0.949 | 0.952 | 1.05 | 0.04 | 0.0445 | 0.0267 | 0.0227 | 0.579 | 0.0276
NCI-H520 | 0.359 | 0.332 | 0.29 | 0.318 | 0.565 | 0.483 | 0.533 | 0.491 | 0.459 | 0.834 | 0.804 | 0.827 | 0.789 | 0.819 | 0.192 | 0.188 | 0.24 | 0.213 | 0.373 | 0.218
NCI-H596 | 0.63 | 0.698 | 0.723 | 0.763 | 0.986 | 1.08 | 0.982 | 1 | 0.863 | 1.18 | 1.15 | 1.04 | 1.09 | 0.985 | 1.33 | 0.912 | 0.98 | 0.975 | 0.749 | –
NCI-H647 | 0.668 | 0.615 | 0.602 | 0.474 | 0.437 | 0.329 | 0.334 | 0.457 | 0.578 | 1.28 | 1.23 | 1.01 | 1.31 | 0.917 | 0.133 | 0.228 | 0.139 | 0.0908 | 0.478 | 0.14
NCI-H650 | – | 0.385 | 0.433 | 0.325 | 0.33 | 0.321 | 0.305 | 0.337 | 0.284 | 0.963 | 1.14 | 1.02 | 1.06 | 0.295 | – | 0.928 | 0.844 | 0.635 | – | 0.718
NCI-H661 | 0.734 | 0.722 | 0.895 | 0.597 | 0.55 | 0.566 | 0.522 | 0.502 | 0.487 | 0.596 | 0.431 | 0.505 | 0.511 | 0.449 | 0.921 | 0.923 | 0.873 | 0.811 | 0.706 | 0.781
NCI-H727 | 0.64 | 0.738 | 0.8 | 0.742 | 0.941 | 0.875 | 0.702 | 0.89 | 0.755 | 0.934 | 0.872 | 0.952 | 0.988 | 0.842 | 0.341 | 0.516 | 0.425 | 0.363 | 0.771 | 0.285
NCI-H838 | 0.789 | 0.826 | 0.658 | 0.283 | 0.455 | 0.468 | 0.459 | 0.483 | 0.481 | 1.22 | 0.993 | 1.04 | 0.998 | 0.958 | 0.355 | 0.315 | 0.32 | 0.222 | 0.397 | 0.282
NCI-H1355 | 0.723 | 0.75 | 0.877 | 0.696 | 0.374 | 0.388 | 0.369 | 0.388 | 0.361 | 1.02 | 1.03 | 1.05 | 1.06 | 1.05 | 0.759 | 0.72 | 0.807 | 0.625 | 0.709 | 0.66
NCI-H1395 | 0.473 | 0.511 | 0.406 | 0.393 | 0.798 | 0.726 | 0.747 | 0.737 | 0.72 | 1.02 | 1.1 | 1.08 | 0.985 | 0.914 | 0.662 | 0.716 | 0.64 | 0.685 | – | 0.669
NCI-H1437 | 0.649 | 0.678 | 0.636 | 0.645 | 0.622 | 0.572 | 0.606 | 0.629 | 0.533 | 0.831 | 0.859 | 0.787 | 0.824 | 0.778 | 1.1 | 1.05 | 1.21 | 0.907 | 0.632 | 1.13
NCI-H1650 | 0.81 | 0.943 | 0.812 | 0.763 | 0.408 | 0.452 | 0.393 | 0.384 | 0.453 | 0.958 | 0.759 | 0.838 | 0.842 | 0.331 | 0.2 | 0.191 | 0.177 | 0.195 | 0.822 | 0.17
NCI-H1651 | 0.195 | 0.174 | 0.179 | 0.221 | 0.615 | 0.66 | 0.474 | 0.591 | 0.537 | 0.898 | 1.03 | 0.797 | 0.782 | 0.864 | 0.806 | 0.734 | 1.1 | 0.826 | 0.24 | 1.02
